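Protocol summary: plate cells (96-well), add compound at 5 concentrations, incubate 48 h, interpolate endpoints linearly. Abbreviation: GI50, concentration required for 50% inhibition of growth.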 Active and inactive are the calls of the source. Rule as the data show it: active = GI50 up to about 1.1 µM and inactive = higher.
Tests used:
Assay in all cases: inhibition of tumour cell growth, NCI panel, 48 h
Hs-578T = tested on: Hs-578T
Malme-3M = tested on: Malme-3M
HCT-116 = tested on: HCT-116
BT-549 = tested on: BT-549
UO-31 = tested on: UO-31
RXF 393 = tested on: RXF 393
SN12C = tested on: SN12C
COLO 205 = tested on: COLO 205
LOX IMVI = tested on: LOX IMVI
SK-OV-3 = tested on: SK-OV-3
RPMI-8226 = tested on: RPMI-8226
HCT-15 = tested on: HCT-15
HL-60 = tested on: HL-60
IGROV-1 = tested on: IGROV-1
SNB-75 = tested on: SNB-75
MDA-MB-231 = tested on: MDA-MB-231
MDA-N = tested on: MDA-N
K562 = tested on: K562
OVCAR-8 = tested on: OVCAR-8
SW-620 = tested on: SW-620

Compound | GI50 (Hs-578T) | GI50 (Malme-3M) | GI50 (HCT-116) | GI50 (BT-549) | GI50 (UO-31) | GI50 (RXF 393) | GI50 (SN12C) | GI50 (COLO 205) | GI50 (LOX IMVI) | GI50 (SK-OV-3) | GI50 (RPMI-8226) | GI50 (HCT-15) [µM] | GI50 (HL-60) | GI50 (IGROV-1) | GI50 (SNB-75) | GI50 (MDA-MB-231) | GI50 (MDA-N) | GI50 (K562) | GI50 (OVCAR-8) | GI50 (SW-620)
Cc1ccc(S(=O)(=O)NC(=O)NS(=O)(=O)O)cc1 | > 100 µM (inactive) | > 100 µM (inactive) | > 100 µM (inactive) | > 100 µM (inactive) | > 100 µM (inactive) | > 100 µM (inactive) | > 100 µM (inactive) | > 100 µM (inactive) | > 100 µM (inactive) | > 100 µM (inactive) | 0.0771 µM (active) | > 100 | > 100 µM (inactive) | > 100 µM (inactive) | > 100 µM (inactive) | > 100 µM (inactive) | > 100 µM (inactive) | > 100 µM (inactive) | > 100 µM (inactive) | > 100 µM (inactive)
COc1cc(Cn2c3c(c4cc(O)ccc42)C(=O)c2ccccc2C3=O)cc(OC)c1 | 11 µM (inactive) | 8.22 µM (inactive) | 0.881 µM (active) | 1.82 µM (inactive) | 4.32 µM (inactive) | 3.92 µM (inactive) | 5.09 µM (inactive) | 12.6 µM (inactive) | 31.7 µM (inactive) | 2.32 µM (inactive) | 0.337 µM (active) | 11.7 | 13.7 µM (inactive) | 2.11 µM (inactive) | – | 5.32 µM (inactive) | 1.49 µM (inactive) | – | 3.55 µM (inactive) | 16.7 µM (inactive)
C[N+](C)(C)CC(=O)N/N=C(/CC1OC(=O)c2ccccc21)c1ccccc1O (centres undefined) | 60.3 µM (inactive) | 59.8 µM (inactive) | 28.4 µM (inactive) | 25.1 µM (inactive) | 24.2 µM (inactive) | 28 µM (inactive) | 49 µM (inactive) | 68.2 µM (inactive) | 17.4 µM (inactive) | 35.2 µM (inactive) | 5.94 µM (inactive) | 36.2 | 16.2 µM (inactive) | 37.8 µM (inactive) | 39.1 µM (inactive) | 95.9 µM (inactive) | 54.1 µM (inactive) | – | 29.2 µM (inactive) | 33.4 µM (inactive)
CCc1nc(N)nc(N)c1-c1ccc([N+](C)(C)C)cc1 | > 100 µM (inactive) | – | > 100 µM (inactive) | > 100 µM (inactive) | > 100 µM (inactive) | > 100 µM (inactive) | > 100 µM (inactive) | > 100 µM (inactive) | > 100 µM (inactive) | > 100 µM (inactive) | > 100 µM (inactive) | > 100 | > 100 µM (inactive) | > 100 µM (inactive) | > 100 µM (inactive) | > 100 µM (inactive) | > 100 µM (inactive) | > 83.4 µM (inactive) | > 100 µM (inactive) | > 100 µM (inactive)
O=C(Cc1ccccc1)Nn1c(-c2ccccc2)nc2ccccc2c1=O | 42.3 µM (inactive) | > 100 µM (inactive) | > 100 µM (inactive) | > 100 µM (inactive) | > 100 µM (inactive) | > 100 µM (inactive) | > 100 µM (inactive) | > 100 µM (inactive) | > 100 µM (inactive) | > 100 µM (inactive) | > 100 µM (inactive) | – | > 100 µM (inactive) | > 100 µM (inactive) | 8.83 µM (inactive) | > 100 µM (inactive) | > 100 µM (inactive) | > 100 µM (inactive) | > 100 µM (inactive) | > 100 µM (inactive)
CC(=O)OC1C(C)OC(OC(=O)C2CCC3C(C2)OC2(CC(OC(=O)/C=C/c4ccccc4)C(C)CO2)C32CO2)C(OC2OC(C)C(O)C(OC(C)=O)C2O)C1O (centres undefined) | < 0.01 µM (active) | < 0.01 µM (active) | < 0.01 µM (active) | < 0.01 µM (active) | 0.499 µM (active) | < 0.0152 µM (active) | < 0.01 µM (active) | < 0.01 µM (active) | < 0.01 µM (active) | < 0.01 µM (active) | < 0.01 µM (active) | 0.319 | < 0.01 µM (active) | < 0.01 µM (active) | < 0.01 µM (active) | < 0.01 µM (active) | < 0.01 µM (active) | < 0.01 µM (active) | < 0.01 µM (active) | < 0.01 µM (active)
CN1C/C(=C\c2cccs2)C2=NC(=S)NC(c3cccs3)C2C1 (centres undefined) | > 100 µM (inactive) | 16 µM (inactive) | 64.4 µM (inactive) | 46.1 µM (inactive) | 38.3 µM (inactive) | 88.7 µM (inactive) | > 100 µM (inactive) | 31.8 µM (inactive) | 67.9 µM (inactive) | > 100 µM (inactive) | 29.9 µM (inactive) | 77.6 | 2.22 µM (inactive) | 46.3 µM (inactive) | – | > 100 µM (inactive) | 66.1 µM (inactive) | 44.7 µM (inactive) | 40.7 µM (inactive) | > 100 µM (inactive)
O=c1cc(N2CCCC2)[nH]c(=O)n1-c1cccc(Cl)c1 | > 100 µM (inactive) | > 100 µM (inactive) | > 100 µM (inactive) | > 100 µM (inactive) | – | > 100 µM (inactive) | > 100 µM (inactive) | > 100 µM (inactive) | > 100 µM (inactive) | > 100 µM (inactive) | > 100 µM (inactive) | > 100 | > 100 µM (inactive) | > 100 µM (inactive) | > 100 µM (inactive) | > 100 µM (inactive) | > 100 µM (inactive) | > 100 µM (inactive) | > 100 µM (inactive) | > 100 µM (inactive)
CC1(C)[C@@H]2C[C@H]1C(Cc1cccc(C[C@H]3c4cc(-c5ccccn5)ncc4[C@H]4C[C@@H]3C4(C)C)c1)c1cc(-c3ccccn3)ncc12 (some centres undefined) | > 100 µM (inactive) | – | 0.428 µM (active) | 5.06 µM (inactive) | 0.785 µM (active) | 8.41 µM (inactive) | 0.834 µM (active) | 0.452 µM (active) | 0.556 µM (active) | 1.25 µM (inactive) | 1.39 µM (inactive) | 1.09 | 0.295 µM (active) | 0.452 µM (active) | 5.05 µM (inactive) | 22.6 µM (inactive) | 0.729 µM (active) | 0.435 µM (active) | 0.478 µM (active) | 0.745 µM (active)
Cc1ccc(S(=O)(=O)O)cc1.c1cc2c(c(NC3=NCCN3)c1)CCCC2 | > 100 µM (inactive) | > 100 µM (inactive) | > 100 µM (inactive) | > 100 µM (inactive) | – | > 100 µM (inactive) | > 100 µM (inactive) | > 100 µM (inactive) | > 100 µM (inactive) | > 100 µM (inactive) | > 100 µM (inactive) | > 100 | > 100 µM (inactive) | > 100 µM (inactive) | 89.3 µM (inactive) | > 100 µM (inactive) | > 100 µM (inactive) | > 100 µM (inactive) | > 100 µM (inactive) | 56.2 µM (inactive)
CC(NC(=O)C(C)C(=O)NCc1ccc(C(F)(F)F)cc1)C(N)=O (centres undefined) | > 100 µM (inactive) | 27.9 µM (inactive) | > 100 µM (inactive) | 84.7 µM (inactive) | > 100 µM (inactive) | > 100 µM (inactive) | > 100 µM (inactive) | > 100 µM (inactive) | – | > 100 µM (inactive) | > 100 µM (inactive) | > 100 | > 100 µM (inactive) | > 100 µM (inactive) | 48.1 µM (inactive) | > 100 µM (inactive) | > 100 µM (inactive) | > 100 µM (inactive) | > 100 µM (inactive) | > 100 µM (inactive)
CC(=O)OC1COC(Nc2nc(N)n(C)c(=O)c2N=O)C(OC(C)=O)C1OC(C)=O (centres undefined) | > 10 µM (inactive) | > 10 µM (inactive) | > 10 µM (inactive) | > 10 µM (inactive) | – | > 10 µM (inactive) | > 10 µM (inactive) | > 10 µM (inactive) | > 10 µM (inactive) | > 10 µM (inactive) | > 10 µM (inactive) | – | > 10 µM (inactive) | > 10 µM (inactive) | > 10 µM (inactive) | > 10 µM (inactive) | > 10 µM (inactive) | – | > 10 µM (inactive) | > 10 µM (inactive)
CN(C)CCCN1c2ccccc2CCc2cccc([N+](=O)[O-])c21 | 23.3 µM (inactive) | 16.9 µM (inactive) | 15.6 µM (inactive) | 25.9 µM (inactive) | 17.4 µM (inactive) | – | 21.3 µM (inactive) | 17.8 µM (inactive) | 16.6 µM (inactive) | 28.6 µM (inactive) | 11.1 µM (inactive) | 15.6 | 15.5 µM (inactive) | 16.9 µM (inactive) | 6.34 µM (inactive) | 25.2 µM (inactive) | 16.2 µM (inactive) | 15.1 µM (inactive) | 15.9 µM (inactive) | 17.7 µM (inactive)
COc1cc2ccc(/C=C\[N+](=O)[O-])cc2cc1OC | 7.69 µM (inactive) | – | 2.34 µM (inactive) | 2.32 µM (inactive) | 1.82 µM (inactive) | 1.87 µM (inactive) | 2.37 µM (inactive) | 4.07 µM (inactive) | 1.79 µM (inactive) | 14.3 µM (inactive) | 1.67 µM (inactive) | 3.21 | 1.97 µM (inactive) | 1.97 µM (inactive) | 2.48 µM (inactive) | 2.84 µM (inactive) | 2.18 µM (inactive) | 2.39 µM (inactive) | 3.12 µM (inactive) | 2.65 µM (inactive)
O=C(Nc1c(Cl)cc([N+](=O)[O-])cc1Cl)C(=O)C1C(=O)NC(=S)NC1=O | > 100 µM (inactive) | > 100 µM (inactive) | > 100 µM (inactive) | > 100 µM (inactive) | > 100 µM (inactive) | > 100 µM (inactive) | > 100 µM (inactive) | – | > 100 µM (inactive) | > 100 µM (inactive) | > 100 µM (inactive) | > 100 | > 100 µM (inactive) | > 100 µM (inactive) | > 100 µM (inactive) | > 100 µM (inactive) | > 100 µM (inactive) | > 100 µM (inactive) | > 100 µM (inactive) | > 100 µM (inactive)

Source: ChEMBL document CHEMBL1201862, “PubChem BioAssay data set” (2004)
